Results: paper doi:10.1101/2025.11.27.690678v1, “Experience from an HTS campaign: Investigation of susceptibility and rescue of SARS-CoV-2 nsp3 protease assay from metal contamination” (biorxiv, 2025)
pIC50: −log10 of the molar value.

Biological target: T1, SARS-CoV-2 nsp3 (Twinstrep nsp3 (179-1329)-His); PLPro (Severe acute respiratory syndrome coronavirus 2, UniProt P0DTD1)
T1 construct: gene rep
Test: fluorescence, RLRGG-AMC cleavage
Format: biochemical
Source text: fluorescence, RLRGG-AMC cleavage on SARS-CoV-2 nsp3 (Twinstrep nsp3 (179-1329)-His); PLPro

| Compound | pIC50 |
| --- | --- |
| Cn1ccnc1-c1cn(CCCc2csc(N)n2)nn1 [compound 2, Compound 2] | < 4.00 |
| CC(=O)Nc1ccc(Sc2ccccc2C(=O)O)cn1 [compound 4, Compound 4] | < 4.00 |
| O=C(O)c1cn(-c2cccc(C(F)(F)F)c2)nn1 [compound 1, Compound 1] | < 4.00 |
| COc1ccc(-n2cc(CNC(=O)c3cc[nH]n3)nn2)cc1 [compound 3, Compound 3] | < 4.00 |
